The values that follow come from patent publication US20070059378A1, “Medical composition for balancing bodily processes” (Metagenics, Inc., priority 2001, published 2007).

The assay concerns subjects with PMS symptoms. The assay can be described thus: Clinical study on PMS symptoms: Shortened Premenstrual Assessment Form (SPAF). The assay is classed as in vivo, women. Conditions: medical food/I3C group vs medical food/placebo group. The method, then:
The clinical trial was performed at the Functional Medicine Research Center, Gig Harbor, Wash. […] Exclusion criteria for the study included: evidence of untreated endocrine, neurological, or infectious disorder; pregnancy or lactation; history of diabetes, mental illness or attempted suicide, or liver, kidney or heart disease; use of oral corticosteroids within four weeks prior to the screening; use of anti-arrhythmic or other cardiac medications.
The study was a […], 2-armed trial with stratification based on the use of birth control medication. Primary endpoints were monitored at the Screening Visit, Visit 1, Visit 2, and Visit 3. […]
Two research-validated, PMS-specific questionnaires were chosen for monitoring PMS symptoms: the Shortened Premenstrual Assessment Form (SPAF) and the Menstrual Distress Questionnaire (MDQ). […] The MDQ data is transformed to provide a normalized score for which a population mean of 50 and a standard deviation of 10 have been determined as reference values. […]
Baseline data (the level of symptoms experienced in the preceding 2 menstrual cycles) were obtained from averaging the Screening Visit and Visit 1 values, and served as a control for non-intervention variability. Laboratory and questionnaire data were analyzed by a one-way analysis of variance (ANOVA) using JMP Statistical Package (SAS Institute, Cary, N.C.). […]

Consider `OCc1c[nH]c2ccccc12` [Example I3C, indole-3-carbinol], for which the “additional effect of I3C on PMS symptoms (questionnaire data) over medical food/placebo” value is on record as “no difference”. In addition, the “additional effect of I3C on PMS symptoms (questionnaire data) over medical food/placebo” value (listed as 13C) is given as “no additional effect”.
